What was measured:
Test in all cases: relative viability (nuclei count vs DMSO), 5 days (fraction); higher = more cells survive
[1] = compound: CC[C@H](C)N1C=C(C2=C(C=C(C=C21)C3=CN=C(C=C3)N4CCNCC4)C(=O)NCC5=C(C=C(NC5=O)C)C)C [GSK126] + O=C(CCCCCCC(=O)Nc1ccccc1)NO [Vorinostat] (partner 1 µM)
Summary of the method: (§1)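 Dosing by pin tool came one day after lung cancer cell lines were seeded in 1536-well plates, using either one drug or a fixed anchor-drug dose plus five library-drug doses (not always all listed) in √10 steps. After 5 days, nuclei were counted on 4× images. Relative viability is treated-well nuclei count divided by vehicle-well nuclei count, and values are medians of duplicate plates.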

[2] = compound: C1CC(C1)(C(=O)O)C(=O)O.[NH2-].[NH2-].[Pt+2] [Carboplatin] + Nc1nc2[nH]cc(CCc3ccc(C(=O)N[C@@H](CCC(=O)O)C(=O)O)cc3)c2c(=O)[nH]1 [Pemetrexed] (partner 0.2 µM)
Summary of the method: as §1

[3] = compound: C1CC(C1)(C(=O)O)C(=O)O.[NH2-].[NH2-].[Pt+2] [Carboplatin] + O=C(CCCCCCC(=O)Nc1ccccc1)NO [Vorinostat] (partner 1 µM)
Summary of the method: as §1

[4] = compound: NS(=O)(=O)OC[C@@H]1C[C@@H](n2ccc3c(N[C@H]4CCc5ccccc54)ncnc32)C[C@@H]1O [MLN4924] + C[C@@H](Oc1cc(-c2cnn(C3CCNCC3)c2)cnc1N)c1c(Cl)ccc(F)c1Cl [Crizotinib] (partner 1 µM)
Summary of the method: as §1

Cell Line: UMC-11
- relative viability ([1]; first compound 0.08 µM): 0.409
- relative viability ([1]; first compound 0.253 µM): 0.381
- relative viability ([1]; first compound 0.8 µM): 0.356
- relative viability ([1]; first compound 2.53 µM): 0.459
- relative viability ([1]; first compound 8 µM): 0.341
- relative viability ([2]; first compound 0.08 µM): 0.853
- relative viability ([2]; first compound 0.253 µM): 0.738
- relative viability ([2]; first compound 0.8 µM): 0.802
- relative viability ([2]; first compound 2.53 µM): 0.689
- relative viability ([2]; first compound 8 µM): 0.62
- relative viability ([3]; first compound 0.08 µM): 0.425
- relative viability ([3]; first compound 0.253 µM): 0.364
- relative viability ([3]; first compound 0.8 µM): 0.36
- relative viability ([3]; first compound 2.53 µM): 0.37
- relative viability ([3]; first compound 8 µM): 0.283
- relative viability ([4]; first compound 0.04 µM): 0.298
- relative viability ([4]; first compound 0.1265 µM): 0.184
- relative viability ([4]; first compound 0.4 µM): 0.234
- relative viability ([4]; first compound 1.265 µM): 0.0782
- relative viability ([4]; first compound 4 µM): 0.0855
